{"source": "patent US10398661B2", "about": "“Methods for classifying a cancer as susceptible to TMEPAI-directed therapies and treating such cancers” (THE BOARD OF REGENTS OF THE UNIVERSITY OF TEXAS SYSTEM, priority 2013, dated 2019)", "key": {"TMEPAI [1]": {"test_system": "TMEPAI", "assay": "TMEPAI mRNA (QPCR) and protein expression in MDA-MB-231 cells with TGF-β", "assay_type": "cell-based, human", "excerpt": "(§1) FIGS. 1A-B: Relative expression of TMEPAI mRNA and protein in normal and cancer cells. FIG. 1A. Effect of TGF-β on TMEPAI mRNA expression by QPCR in normal human mammary epithelial (HMEC) and MDA-MB-231 breast cancer cells, which is inhibited by TGF-β receptor I kinase inhibitor SB431542 (SB). FIG. 1B. Relative expression of TMEPAI protein in HMEC and MDA-MB-231 cells without or with TGF-β stimulation.\n(§2) TMEPAI Expression in Normal Mammary Epithelial Cells Vs Breast Cancer Cells. […] The inventors tested the expression of TMEPAI in various breast cancer lines by immunoblotting. […] Moreover, TMEPAI is also expressed by aggressive HER2-positive breast cancer cells that either coexpress estrogen receptor (BT-474) or not (SK-BR-3) (FIG. 2)."}, "TMEPAI [2]": {"test_system": "TMEPAI", "assay": "TMEPAI RNA and protein expression in normal human mammary epithelial cells (HMEC) with TGF-β", "assay_type": "cell-based", "conditions": "in response to TGF-β", "excerpt": "as §1, §2"}, "[3]": {"assay": "Body weights of xenograft-bearing nude mice treated with CLST-NP or CLST (toxicity)", "assay_type": "in vivo", "conditions": "doses administered: 0.2 mg/kg CLST-NP, 2 mg/Kg CLST", "experimental": "(FIG. 12A) Representative pictures of tumors excised from nude mice that harbored xenografts of human breast cancer cells (MDA-MB-231). (Veh-NP) 2 mg/kg drug-free liposomes, 0.2 mg/kg celastrol containing liposomes (CLST-NP) or 2 mg/Kg celastrol alone (CLST) were administered by intraperitoneal injection every alternate day for first week and every 2 day interval for following week for a total of two weeks period. (FIG. 12B) Tumor weights were shown *p<0.01 versus Vehicle control group. (FIG. 12C) Tumor volumes measured before sacrificing the animals. * p<0.01 versus Vehicle control group. (FIG. 12D) Similarities in body weights of animals treated with vehicle or drugs indicate non-toxicity of CLST-NP and CLST at the doses administered.\nSimilarities in body weights of animals treated with vehicle or drugs indicate non-toxicity of CLST-NP and CLST at the doses administered."}, "[4]": {"test_system": "normal mammary epithelial cells MCF-10A", "assay": "Growth of normal mammary epithelial MCF-10A cells with celastrol", "assay_type": "cell-based", "conditions": "1 μM", "excerpt": "FIGS. 10A-D: Celastrol is novel inhibitor of TMEPAI expression and cancer cell growth by enhancing growth suppressive TGF-β signaling. FIG. 10A. […] FIG. 10B. Celastrol had no effect on the growth of normal mammary epithelial cells MCF-10A. FIG. 10C. Celastrol inhibited non-Smad signaling (left panel) and enhanced Smad signaling (right panel) by inhibiting TMEPAI expression. FIG. 10D. Celastrol enhanced Smad signaling as measured by 12XCAGA-Luciferase reporter assay.\nTerpinoid Derivative Celastrol Blocked TMEPAI Expression and Reversed TMEPAI Mediated Effects. The inventors identified tripterine (celastrol), a triterpinoid, having the ability to block TGF-β induced TMEPAI expression after screening several terpinoid derivatives with reactive α,β-unsaturated ketones in their structure. […] Only a mild decrease in the proliferation of normal MCF-10A cells was observed even at a 10-fold higher dose of celastrol (not shown). […] Equally, celastrol inhibited non-Smad signaling (FIG. 10C, left panel). The enhancement of Smad signaling is also confirmed by increased 12XCAGA-luciferase reporter activity (FIG. 10D)."}, "[5]": {"conditions": "cited from earlier work"}, "[6]": {"assay": "Total body weight of tumor-bearing mice treated with celastrol (toxicity)", "assay_type": "in vivo", "conditions": "2 mg/kg", "experimental": "(§3) FIG. 11A. athymic mice bearing subcutaneous MDA-MB-231 tumors that were treated for 3 times a week for 4 consecutive weeks with 2 mg/kg celastrol or vehicle alone. FIG. 11B. Tumor weights following celastrol treatment, P<0.001. […] FIG. 11C. […] Toxicity of celastrol administered was monitored by measuring total body weight.\n(§4) Pharmacological Inhibition of TMEPAI Expression Reduces Tumor Growth In Vivo. […] Compared to vehicle-treatment, celastrol treatment led to a ˜6-fold reduction in tumor burden (FIG. 11B). […] Thus, these preclinical studies confirm that TMEPAI expressing breast cancers thrive by suppressing tumor suppressive TGF-β signaling and are therefore susceptible to pharmacological inhibition of TMEPAI expression by celastrol."}, "MDA-MB-231 tumors": {"test_system": "MDA-MB-231 tumors", "assay": "Subcutaneous MDA-MB-231 tumors in athymic mice treated with celastrol", "assay_type": "in vivo", "conditions": "2 mg/kg, 3 times a week for 4 weeks", "experimental": "as §3, §4"}, "[7]": {"conditions": "MDA-MB-231 cells, within 6 h of treatment"}}, "data": [{"molecule": "TGF-β", "values": [{"measurement": "induction of TMEPAI mRNA", "setting": "TMEPAI [1]; [7]", "value": "> 40", "unit": "fold"}, {"measurement": "induction of TMEPAI proteins", "setting": "TMEPAI [1]; [7]", "value": "~9", "unit": "fold"}, {"measurement": "induction of TMEPAI RNA and proteins", "setting": "TMEPAI [2]", "value": "poorly induced"}]}, {"molecule": "CC1=C(O)C(=O)C=C2C1=CC=C1[C@@]2(C)CC[C@@]2(C)[C@@H]3C[C@](C)(C(=O)O)CC[C@]3(C)CC[C@]12C", "note": "[celastrol]", "values": [{"measurement": "toxicity judged from body weights similar to vehicle", "setting": "[3]", "value": "non-toxicity"}, {"measurement": "growth of normal MCF-10A cells", "setting": "[4]", "value": "no effect"}, {"measurement": "aqueous solubility", "setting": "[5]", "value": "low"}, {"measurement": "total body weights of mice versus vehicle", "setting": "[6]", "value": "remained the same"}, {"measurement": "toxic effects at the dose given to mice", "setting": "[6]", "value": "no toxic effects"}, {"measurement": "reduction in tumor burden compared to vehicle-treatment (tumor weights)", "setting": "MDA-MB-231 tumors", "value": "~6", "unit": "fold"}, {"measurement": "luminescence signal in the tumors", "setting": "MDA-MB-231 tumors; MDA-MB-231 cells expressing GFP-luciferase", "value": "500-2500 RLU"}]}, {"molecule": "NC(=O)c1ccc(-c2nc(-c3ccc4c(c3)OCO4)c(-c3ccccn3)[nH]2)cc1", "note": "[SB431542]", "values": [{"measurement": "effect of TGF-β on TMEPAI mRNA expression by QPCR in presence of inhibitor", "setting": "TMEPAI [1]; HMEC and MDA-MB-231 cells", "value": "inhibited"}]}]}
